The test system of assay [1] is healthy male participants. In words: Heart rate, arterial line/ECG recording. The class given is in vivo, human. The settings on record: days B and C, after 15 min of esmolol 1.25 mg/kg bolus+[…] iv.
The test system of assay [2] is healthy male participants. In words: Relative stroke volume. The class given is in vivo, human. The settings on record: esmolol 1.25 mg/kg bolus+[…] iv.
Assay [3] relates to cardiac beta 1 receptors. The settings on record: esmolol dose used (1.25 mg/kg bolus+[…]); cited from earlier work.

The structures appear in SMILES notation.

Regarding `COC(=O)CCc1ccc(OCC(O)CNC(C)C)cc1` (stereo not shown) [esmolol], the “Average heart rate at baseline (0 min)” value in assay [1] is 58.2 bpm. Also, the “Reduction of mean stroke volume from −15 minutes to baseline” value in assay [2] (day B) was found to be 13.7%; in assay [2] (day C, before glucagon), 25.8%. Further, in assay [3], the “Cardiac beta 1 receptors blocked” value is recorded as greater than 85%.

(Values after PMC7763418 (Journal of the American Heart Association: Cardiovascular …, 2020).)
